Measured values as given in ChEMBL document CHEMBL1153190, “Novel neofusapyrones isolated from Verticillium dahliae as potent antifungal substances” (Bioorg Med Chem Lett, 2010).
The source made the active and inactive calls. The calls are words filed in the database; no cut-off is given here.

Legend:
HeLa = assay: Cytotoxicity against human HeLa cells; assay type: cell-based
Bipolaris oryzae = assay: Antifungal activity against Cochliobolus miyabeanus at 100 ng/ml; assay type: functional, organism-based
HepG2 = assay: Cytotoxicity against human HepG2 cells; assay type: cell-based
Staphylococcus aureus = assay: Antibacterial activity against methicillin-resistant Staphylococcus aureus Isolate 87-7927 at 10 ug; assay type: functional, organism-based

Compound | Activity (HeLa) | Activity (Bipolaris oryzae) | Activity (HepG2) | Activity (Staphylococcus aureus)
CCCCCCC(C)C/C(C)=C\C(C)/C=C(C)/C=C/C(O)C(C)c1cc(O)c([C@@H]2O[C@H](CO)C[C@H](O)[C@H]2O)c(=O)o1 (some centres not stated) | Non-toxic | Active | Non-toxic | –
CCCCCCC(C)C/C(C)=C\C(C)/C=C(C)/C=C/C(O)C(C)(C)c1cc(O)c([C@@H]2O[C@H](CO)C[C@H](O)[C@H]2O)c(=O)o1 (some centres not stated) [DEOXYNEOFUSAPYRONE] | Non-toxic | Active | Non-toxic | Active
